Measured values: ChEMBL document CHEMBL5625253, “Discovery of novel benzofuran-based derivatives as acetylcholinesterase inhibitors for the treatment of Alzheimer's disease: Design, synthesis, biological evaluation, molecular docking and 3D-QSAR investigation” (Eur J Med Chem, 2023)
Active and inactive are the calls of the source. The calls are words filed in the database; no cut-off is given here.

Key:
[1] = Antioxidant activity assessed as DPPH radical scavenging activity at 0.01 ug/ml incubated for 1 hr under dark condition by absorbance based assay relative to control; type: functional; conditions: dose 0.01 µg/ml
Acetylcholinesterase = Acetylcholinesterase (Homo sapiens, UniProt P22303); test: Inhibition of AChE (unknown origin) using […] as substrate incubated for 15 to 20 mins by DTNB reagent based Ellman's method
Chain of Acetylcholinesterase (P22303 whole entry): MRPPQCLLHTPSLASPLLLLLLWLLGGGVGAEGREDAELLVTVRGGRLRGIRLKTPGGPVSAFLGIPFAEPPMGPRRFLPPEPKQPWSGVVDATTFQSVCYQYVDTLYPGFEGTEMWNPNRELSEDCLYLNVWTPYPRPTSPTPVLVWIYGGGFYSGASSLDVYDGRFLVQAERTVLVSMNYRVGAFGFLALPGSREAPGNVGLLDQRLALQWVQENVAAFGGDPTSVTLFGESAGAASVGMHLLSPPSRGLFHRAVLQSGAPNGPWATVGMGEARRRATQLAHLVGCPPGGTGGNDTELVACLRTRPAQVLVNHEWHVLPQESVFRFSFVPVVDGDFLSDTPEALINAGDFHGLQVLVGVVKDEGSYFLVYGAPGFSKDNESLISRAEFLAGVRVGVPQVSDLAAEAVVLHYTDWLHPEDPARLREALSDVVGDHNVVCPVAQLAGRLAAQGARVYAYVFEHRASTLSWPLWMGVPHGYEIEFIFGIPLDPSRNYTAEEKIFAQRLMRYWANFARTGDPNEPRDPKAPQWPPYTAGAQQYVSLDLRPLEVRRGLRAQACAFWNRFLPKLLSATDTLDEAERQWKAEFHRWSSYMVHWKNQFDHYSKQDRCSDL

[2] = Antioxidant activity assessed as DPPH radical scavenging activity at 0.05 ug/ml incubated for 1 hr under dark condition by absorbance based assay relative to control; type: functional; conditions: dose 0.05 µg/ml
[3] = Toxicity in Wistar rat assessed as RBC level in blood at 10 mg/kg,po; type: organism-based, Erythrocyte; conditions: in vivo
Rattus norvegicus [4] = test: Antialzheimer activity against AlCl3-induced Alzheimer's disease Wistar albino rat model assessed as improvement in cognitive ability at 10 mg/kg,po for 6 weeks by T-maze test; type: functional
[5] = Toxicity in Wistar rat assessed as haematocrit level in blood at 10 mg/kg,po (reference value: 38.16 +/- 2.44 %); type: organism-based; conditions: in vivo
[6] = Toxicity in Wistar rat assessed as hemoglobin level in blood at 10 mg/kg,po (reference value: 14.5 +/- 1 g/dl); type: organism-based; conditions: in vivo
Rattus norvegicus [7] = test: Antialzheimer activity against AlCl3-induced Alzheimer's disease Wistar albino rat model assessed as gliosis at 10 mg/kg,po for 6 weeks by hematoxylin and eosin staining based microscopic analysis; type: functional
Rattus norvegicus [8] = test: Antialzheimer activity against AlCl3-induced Alzheimer's disease Wistar albino rat model assessed as time taken to reach the food at 10 mg/kg,po for 6 weeks by T-maze test; type: functional
[9] = Toxicity in Wistar rat assessed as mean corpuscular hemoglobin concentration in blood at 10 mg/kg,po (reference value: 33.8 +/- 2.1 g/dl); type: organism-based; conditions: in vivo
Rattus norvegicus [10] = test: Antialzheimer activity against AlCl3-induced Alzheimer's disease Wistar albino rat model assessed as change in MDA level in brain at 10 mg/kg,po for 6 weeks relative to control; type: functional
[11] = Toxicity in Wistar rat assessed as mean platelet volume in blood at 10 mg/kg,po (reference value: 7.3 +/- 0.12 fL); type: organism-based; conditions: in vivo
[12] = Acute toxicity in Wistar rat assessed as mortality at 50 mg/kg,po observed after 1 month; type: organism-based; conditions: in vivo, 730 h, time 1 months
[13] = Toxicity in Wistar rat assessed as albumin level in liver at 10 mg/kg,po (reference value: 3.28 +/- 0.43 mg/dl); type: organism-based; conditions: in vivo
[14] = Toxicity in Wistar rat assessed as creatinine level in liver at 10 mg/kg,po (reference value: 0.68 +/- 0.03 mg/dl); type: organism-based; conditions: in vivo
[15] = Toxicity in Wistar rat assessed as AST level in liver at 10 mg/kg,po (reference value: 67 +/- 5.1 U/L); type: organism-based; conditions: in vivo
[16] = Toxicity in Wistar rat assessed as […] cell volume in blood at 10 mg/kg,po (reference value: 43 +/- 3.1 %); type: organism-based; conditions: in vivo
Rattus norvegicus [17] = test: Antialzheimer activity against AlCl3-induced Alzheimer's disease Wistar albino rat model assessed as improvement in GSH level in brain at 10 mg/kg,po for 6 weeks relative to control; type: functional
Rattus norvegicus [18] = test: Antialzheimer activity against AlCl3-induced Alzheimer's disease Wistar albino rat model assessed as GSH level in brain at 10 mg/kg,po for 6 weeks; type: functional
[19] = Toxicity in Wistar rat assessed as Kupffer cell proliferation in liver at 10 mg/kg,po by hematoxylin and eosin staining based microscopic analysis; type: organism-based; conditions: in vivo
[20] = Acute toxicity in Wistar rat assessed as mortality at 50 mg/kg,po observed after 24 hrs; type: organism-based; conditions: in vivo
[21] = Toxicity in Wistar rat assessed as histopathological change in heart at 10 mg/kg,po by hematoxylin and eosin staining based microscopic analysis; type: organism-based; conditions: in vivo
[22] = Toxicity in Wistar rat assessed as bilirubin level in liver at 10 mg/kg,po (reference value: 0.6 +/- 0.08 mg/dl); type: organism-based; conditions: in vivo
[23] = Toxicity in Wistar rat assessed as mean corpuscular volume in blood at 10 mg/kg,po (reference value: 59 +/- 5 fL); type: organism-based; conditions: in vivo
[24] = Acute toxicity in Wistar rat assessed as loose bowels at 10 mg/kg,po administrated for 1 month; type: organism-based; conditions: in vivo, 730 h, time 1 months
[25] = Toxicity in Wistar rat assessed as urea level in liver at 10 mg/kg,po (reference value: 33.6 +/- 2.65 mg/dl); type: organism-based; conditions: in vivo
Rattus norvegicus [26] = test: Antialzheimer activity against AlCl3-induced Alzheimer's disease Wistar albino rat model assessed as improvement in MDA level in brain at 10 mg/kg,po for 6 weeks relative to control; type: functional
[27] = Toxicity in Wistar rat assessed as histopathological change in kidney at 10 mg/kg,po by hematoxylin and eosin staining based microscopic analysis; type: organism-based; conditions: in vivo
[28] = Toxicity in Wistar rat assessed as mean corpuscular hemoglobin in blood at 10 mg/kg,po (reference value: 19 +/- 1.77 pg); type: organism-based; conditions: in vivo
[29] = Acute toxicity in Wistar rat assessed as mortality at 100 mg/kg,po observed after 24 hrs; type: organism-based; conditions: in vivo
[30] = Acute toxicity in Wistar rat assessed as mortality at 100 mg/kg,po observed after 1 month; type: organism-based; conditions: in vivo, 730 h, time 1 months
Rattus norvegicus [31] = test: Antialzheimer activity against AlCl3-induced Alzheimer's disease Wistar albino rat model assessed as change in GSH level in brain at 10 mg/kg,po for 6 weeks relative to control; type: functional
[32] = Toxicity in Wistar rat assessed as histopathological change in brain at 10 mg/kg,po by hematoxylin and eosin staining based microscopic analysis; type: organism-based; conditions: in vivo
[33] = Toxicity in Wistar rat assessed as ALP level in liver at 10 mg/kg,po (reference value: 140 +/- 6 U/L); type: organism-based; conditions: in vivo
[34] = Toxicity in Wistar rat assessed as red blood cell distribution width in blood at 10 mg/kg,po (reference value: 17.2 +/- 0.22 %); type: organism-based; conditions: in vivo
Rattus norvegicus [35] = test: Antialzheimer activity against AlCl3-induced Alzheimer's disease Wistar albino rat model assessed as decrease in cellular density in hippocampal region of brain at 10 mg/kg,po for 6 weeks by hematoxylin and eosin staining based microscopic analysis; type: functional, organism-based
Rattus norvegicus [36] = test: Antialzheimer activity against AlCl3-induced Alzheimer's disease Wistar albino rat model assessed as MDA level in brain at 10 mg/kg,po for 6 weeks; type: functional
[37] = Toxicity in Wistar rat assessed as glucose level in liver at 10 mg/kg,po (reference value: 105 +/- 8.44 mg/dl); type: organism-based; conditions: in vivo
[38] = Acute toxicity in Wistar rat assessed as mortality at 10 mg/kg,po administrated for 1 month; type: organism-based; conditions: in vivo, 730 h, time 1 months
Rattus norvegicus [39] = test: Antialzheimer activity against AlCl3-induced Alzheimer's disease Wistar albino rat model assessed as degeneration of pyramidal neurons in hippocampus at 10 mg/kg,po for 6 weeks by hematoxylin and eosin staining based microscopic analysis; type: functional
[40] = Toxicity in Wistar rat assessed as ALT level in liver at 10 mg/kg,po (reference value: 27 +/- 2 U/L); type: organism-based; conditions: in vivo

NS(=O)(=O)c1ccc(N/C=C/C(=O)c2cc3ccccc3o2)cc1
Activity [1]: 18.4% | IC50 (Acetylcholinesterase): 0.882 µM | Activity [2]: 13%

Cc1cc(NS(=O)(=O)c2ccc(N/C=C/C(=O)c3cc4ccccc4o3)cc2)no1
Activity [1]: 71.7% | IC50 (Acetylcholinesterase): 0.283 µM | Activity [2]: 65.2%

O=C(/C=C/Nc1ccc(Cl)cc1)c1cc2ccccc2o1
Activity [1]: 28.2% | IC50 (Acetylcholinesterase): 2.14 µM | Activity [2]: 65.3%

O=C(/C=C/Nc1ccc(S(=O)(=O)Nc2ncccn2)cc1)c1cc2ccccc2o1
Activity [1]: 5% | IC50 (Acetylcholinesterase): 0.357 µM | Activity [2]: 37.5%

Cc1ccc(N/C=C/C(=O)c2cc3ccccc3o2)cc1
Activity [1]: 21.3% | IC50 (Acetylcholinesterase): 0.397 µM | Activity [2]: 40%

CC(=O)c1cccc(N/C=C/C(=O)c2cc3ccccc3o2)c1
Activity [3]: 6.29 10^6/µL | Activity (Rattus norvegicus [4]): 107.04% | Activity [5]: 39.4% | Activity [6]: 14.8 g/dL | Activity [1]: 63.1% | Activity (Rattus norvegicus [7]): <10% | Time (Rattus norvegicus [8]): 27 s | Activity [9]: 31 g/dL | Activity (Rattus norvegicus [10]): 103.35% | Activity [11]: 6.9 fL | Activity [12]: Non-Toxic | Activity [13]: 3.3 mg/dL | Activity [14]: 0.72 mg/dL | Activity [15]: 68 U/L | Activity [16]: 42.16% | Activity (Rattus norvegicus [17]): 26.98% | Activity (Rattus norvegicus [18]): 16.32 mg | Activity [19]: Non-Toxic | Activity [20]: Non-Toxic | Activity [21]: Non-Toxic | Activity [22]: 0.67 mg/dL | Activity [23]: 56 fL | Activity [24]: Non-Toxic | Activity [25]: 32 mg/dL | Activity (Rattus norvegicus [26]): 242.95% | IC50 (Acetylcholinesterase): 0.19 µM | Activity [27]: Non-Toxic | Activity [28]: 18.6 pg | mortality at 24 h [29]: 25% | Activity [30]: Non-Toxic | Activity (Rattus norvegicus [31]): 24.09% | Activity [32]: Non-Toxic | Activity [33]: 136 U/L | Activity [2]: 67.6% | Activity [34]: 16.6% | Activity (Rattus norvegicus [35]): Active | Activity (Rattus norvegicus [36]): 57.14 nmol | Activity [37]: 115 mg/dL | Activity [38]: Non-Toxic | Activity (Rattus norvegicus [39]): <10% | Activity [40]: 29 U/L

CC(=O)c1ccc(N/C=C/C(=O)c2cc3ccccc3o2)cc1
Activity [1]: 10% | IC50 (Acetylcholinesterase): 5.91 µM | Activity [2]: 27%

O=C(O)c1ccc(N/C=C/C(=O)c2cc3ccccc3o2)cc1
Activity [1]: 5.71% | IC50 (Acetylcholinesterase): 0.794 µM | Activity [2]: 35%

O=C(/C=C/Nc1cccc(Br)c1)c1cc2ccccc2o1
Activity [1]: 9.29% | IC50 (Acetylcholinesterase): 0.313 µM | Activity [2]: 17.9%

O=C(/C=C/Nc1cccc([N+](=O)[O-])c1)c1cc2ccccc2o1
Activity [1]: 76.1% | IC50 (Acetylcholinesterase): 0.736 µM | Activity [2]: 82.6%

O=C(/C=C/Nc1ccc(F)cc1)c1cc2ccccc2o1
Activity [1]: 73.9% | IC50 (Acetylcholinesterase): 0.487 µM | Activity [2]: 76.1%

O=C(/C=C/Nc1ccccc1O)c1cc2ccccc2o1
Activity [1]: 65.5% | IC50 (Acetylcholinesterase): 0.308 µM | Activity [2]: 90%

CN(C)/C=C/C(=O)c1cc2ccccc2o1
Activity [1]: 11.4% | IC50 (Acetylcholinesterase): 2.69 µM | Activity [2]: 56.4%

O=C1O[C@H]([C@@H](O)CO)C(O)=C1O
Activity [1]: 81% | Activity [2]: 89%

Cc1cccc(N/C=C/C(=O)c2cc3ccccc3o2)c1
Activity [1]: 12.1% | IC50 (Acetylcholinesterase): 0.617 µM | Activity [2]: 14.3%

CCOC(=O)c1ccc(N/C=C/C(=O)c2cc3ccccc3o2)cc1
Activity [1]: 21.4% | IC50 (Acetylcholinesterase): 2.13 µM | Activity [2]: 28.6%

O=C(/C=C/Nc1ccc(S(=O)(=O)Nc2ccccn2)cc1)c1cc2ccccc2o1
Activity [1]: 2.2% | IC50 (Acetylcholinesterase): 1.07 µM | Activity [2]: 76.1%

O=C(O)c1cccc(N/C=C/C(=O)c2cc3ccccc3o2)c1
Activity [1]: 22.5% | IC50 (Acetylcholinesterase): 3.77 µM | Activity [2]: 65%

N=C(N)NS(=O)(=O)c1ccc(N/C=C/C(=O)c2cc3ccccc3o2)cc1
Activity [1]: 25% | IC50 (Acetylcholinesterase): 0.908 µM | Activity [2]: 35%

COc1cc2c(cc1OC)C(=O)C(CC1CCN(Cc3ccccc3)CC1)C2 (configuration not stated) [DONEPEZIL]
Activity (Rattus norvegicus [4]): 112.14% | Activity [1]: 20.4% | Activity (Rattus norvegicus [7]): <10% | Time (Rattus norvegicus [8]): 26 s | Activity (Rattus norvegicus [10]): 67.86% | Activity (Rattus norvegicus [17]): 33.02% | Activity (Rattus norvegicus [18]): 17.62 mg | Activity (Rattus norvegicus [26]): 278.43% | Activity (Rattus norvegicus [31]): 18.05% | Activity [2]: 30.2% | Activity (Rattus norvegicus [36]): 47.17 nmol | Activity (Rattus norvegicus [39]): <10%

O=C(/C=C/Nc1ccc(Br)cc1)c1cc2ccccc2o1
Activity [1]: 22.2% | IC50 (Acetylcholinesterase): 1.1 µM | Activity [2]: 27%

O=C(/C=C/Nc1ccccc1C(=O)O)c1cc2ccccc2o1
Activity [1]: 23.5% | IC50 (Acetylcholinesterase): 2.07 µM | Activity [2]: 65%
